The target in this assay is catalytic domain 2 (CD2) of HDAC6 (Homo sapiens (Human), UniProt Q9UBN7). Put plainly: Cellular target engagement assay - NanoBRET. Type of assay: cell-based. To be noted: NanoLuc-HDAC6(CD2) in HEK293T cells, 2 hours, read-out: IC50 (HDAC6(CD2) interaction). The protocol: NanoBRET target engagement was performed against the catalytic domain 2 (CD2) of HDAC6, with minor modifications of kit manufacturer protocol (Promega). Expression of exogenous NanoLuc-HDAC6(CD2) fusion and in HEK293T was achieved following transient transfection with FuGENE HD Transfection Reagent (Promega). The intracellular target engagement assay on HDAC6(CD2) was performed in a 384-well plate format with 8,000 cells per well and a tracer concentration of 0.125 μM or 0.600 μM for HDAC6(CD2). Compounds (dissolved in 100% DMSO) or DMSO (vehicle) were added either manually by diluting them in culture medium at 8× final assay concentration and then adding 5 μL to assay plate or in an automated way by adding […] compound to 5 μL OptiMEM without phenol red (Gibco) using the Echo650 (Labcyte). Tracer solution was added to the cells before seeding 35 μL cell/tracer mixture in the assay plate. The final reaction volume was 40 μL, final DMSO concentration was 1.4% (manual compound addition) or 1.25% (automated compound addition). Assay plates were incubated at 37° C. in a humidified atmosphere containing 5% C02 for 2 hours. The NanoBRET Nano-glo Substrate/Inhibitor was prepared by diluting NanoBRET Nano-Glo Substrate (1:332) and Extracellular Inhibitor (1:1000) in assay medium (Promega). […] BRET ratios were calculated from acceptor/donor signal ratio (mBRET=acceptor/donor*1000) and normalized for each plate. Percentage inhibition was calculated by setting the mBRET obtained with cells without tracer to 100%, while the mBRET obtained with uninhibited cells with tracer was set to 0%. IC50-values were calculated from the percentage inhibition with the log(inhibitor) vs. response—Variable slope (four parameters) nonlinear regression in GraphPad Prism software.

Drawing on patent US20250051319A1 (AUGUSTINE THERAPEUTICS, priority 2021, published 2025), this text covers IC50 for 29 molecules.

By pIC50 is commonly meant the IC50 on a negative log10 scale, so that one unit is a factor of ten.

pIC50: −log10 of the molar value.

Sequence of catalytic domain 2 (CD2) of HDAC6 (Q9UBN7 482-800): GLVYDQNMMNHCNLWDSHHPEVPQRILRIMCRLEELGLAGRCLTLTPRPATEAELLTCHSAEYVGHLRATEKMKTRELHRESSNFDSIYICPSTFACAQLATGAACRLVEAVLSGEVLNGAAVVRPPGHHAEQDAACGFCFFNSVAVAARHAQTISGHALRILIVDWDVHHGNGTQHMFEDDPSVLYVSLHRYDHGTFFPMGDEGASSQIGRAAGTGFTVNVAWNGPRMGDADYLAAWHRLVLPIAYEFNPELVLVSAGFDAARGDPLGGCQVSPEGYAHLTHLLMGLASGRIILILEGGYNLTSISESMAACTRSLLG

As to `CC(NC(=O)CO)c1ccc(C(=O)CSc2nc3cnc(C(F)(F)F)cc3o2)s1` (stereo in doubt) [Example 129, (S)-2-hydroxy-N-(1-(5-(2-((6-(trifluoromethyl)oxazolo[4,5-c]pyridin-2-yl)thio)acetyl)thiophen-2-yl)ethyl)acetamide], the pIC50 is ≥ 7.00.
The same measure for `O=C(CSc1nc(C(F)(F)F)nc2ncccc12)c1ccc(CN2CCC(O)C2=O)s1` (stereo in doubt) [Example 156, (R)-3-hydroxy-1-((5-(2-((2-(trifluoromethyl)pyrido[2,3-d]pyrimidin-4-yl)thio)acetyl)thiophen-2-yl)methyl)pyrrolidin-2-one]: ≥ 7.00.
With `Cn1ncc2c(SCC(=O)c3ccc(CNC(=O)C(O)C(F)(F)F)s3)ncnc21` (centres unmarked) [Compound 42, 3,3,3-trifluoro-2-hydroxy-N-((5-(2-((1-methyl-1H-pyrazolo[3,4-d]pyrimidin-4-yl)thio)acetyl)thiophen-2-yl)methyl)propanamide] the figure was 6.00 to 6.30; with `O=C(CSc1nc2nc(C(F)(F)F)ccc2o1)c1ccc(CNC(=O)C2(O)CC2)s1` [Compound 45, 1-hydroxy-N-((5-(2-((5-(trifluoromethyl)oxazolo[4,5-b]159yrrolid-2-yl)thio)acetyl)thiophen-2-yl)methyl)cyclopropane-1-carboxamide], ≥ 7.00; with `Cn1cc2c(SCC(=O)c3ccc(CNC(=O)C(O)C(F)(F)F)s3)nc(C(F)(F)F)nc2n1` (centres unmarked) [Compound 46, 3,3,3-trifluoro-2-hydroxy-N-((5-(2-((2-methyl-6-(trifluoromethyl)-2H-pyrazolo[3,4-d]pyrimidin-4-yl)thio)acetyl)thiophen-2-yl)methyl)propanamide], ≥ 7.00.
The same measure for `O=C(CSc1nc(C(F)(F)F)nc2ccc(N3CCOCC3)cc12)c1ccc(CNC(=O)C2(O)CC2)s1` [Compound 47, 1-hydroxy-N-((5-(2-((6-morpholino-2-(trifluoromethyl)quinazolin-4-yl)thio)acetyl)thiophen-2-yl)methyl)cyclopropane-1-carboxamide]: 6.30 to 7.00; for `Cn1cc2c(SCC(=O)c3ccc(CNC(=O)C(C)(C)O)s3)nc(C(F)(F)F)nc2n1` [Compound 48, 2-hydroxy-2-methyl-N-((5-(2-((2-methyl-6-(trifluoromethyl)-2H-pyrazolo[3,4-d]pyrimidin-4-yl)thio)acetyl)thiophen-2-yl)methyl)propanamide]: ≥ 7.00.
For the molecule `Cn1cc2c(SCC(=O)c3ccc(CNC(=O)C4(O)CC4)s3)nc(C(F)(F)F)nc2n1` [Compound 49, 1-hydroxy-N-((5-(2-((2-methyl-6-(trifluoromethyl)-2H-pyrazolo[3,4-d]pyrimidin-4-yl)thio)acetyl)thiophen-2-yl)methyl)cyclopropane-1-carboxamide], the pIC50 was ≥ 7.00.
With `COc1ccc2nc(C)nc(SCC(=O)c3ccc(CNC(=O)C4(O)CC4)s3)c2c1` [Compound 50, 1-hydroxy-N-((5-(2-((6-methoxy-2-methylquinazolin-4-yl)thio)acetyl)thiophen-2-yl)methyl)cyclopropane-1-carboxamide] the figure was 6.30 to 7.00.
The same measure for `Cn1ncc2c(SCC(=O)c3ccc(CNC(=O)C(C)(C)O)s3)ncnc21` [Compound 52, 2-hydroxy-2-methyl-N-((5-(2-((1-methyl-1H-pyrazolo[3,4-d]pyrimidin-4-yl)thio)acetyl)thiophen-2-yl)methyl)propanamide]: 6.00 to 6.30; for `CCc1nc(SCC(=O)c2ccc(CNC(=O)CO)s2)c2ccccc2n1` [Compound 62, N-((5-(2-((2-ethylquinazolin-4-yl)thio)acetyl)thiophen-2-yl)methyl)-2-hydroxyacetamide]: ≥ 7.00; for `Cc1nc(SCC(=O)c2ccc(CNC(=O)CO)s2)c2cn(C)nc2n1` [Compound 65, N-((5-(2-((2,6-dimethyl-2H-pyrazolo[3,4-d]pyrimidin-4-yl)thio)acetyl)thiophen-2-yl)methyl)-2-hydroxyacetamide]: 6.00 to 6.30.
In the case of `Cc1nc(SCC(=O)c2ccc(CNC(=O)CO)s2)c2ccccc2n1` [Compound 66, 2-hydroxy-N-((5-(2-((2-methylquinazolin-4-yl)thio)acetyl)thiophen-2-yl)methyl)acetamide], the negative logarithm of the IC50 (pIC50) is ≥ 7.00.
The same measure for `Cc1nc(SCC(=O)c2ccc(CNC(=O)CO)s2)c2cc(F)ccc2n1` [Compound 67, N-((5-(2-((6-fluoro-2-methylquinazolin-4-yl)thio)acetyl)thiophen-2-yl)methyl)-2-hydroxyacetamide]: 6.30 to 7.00; for `Cc1nc(SCC(=O)c2ccc(CNC(=O)CO)s2)c2ccc(F)cc2n1` [Compound 68, N-((5-(2-((7-fluoro-2-methylquinazolin-4-yl)thio)acetyl)thiophen-2-yl)methyl)-2-hydroxyacetamide]: 6.30 to 7.00; for `COc1ccc2c(SCC(=O)c3ccc(CNC(=O)CO)s3)nc(C)nc2c1` [Compound 70, 2-hydroxy-N-((5-(2-((7-methoxy-2-methylquinazolin-4-yl)thio)acetyl)thiophen-2-yl)methyl)acetamide]: 6.30 to 7.00.
With `Cc1nc(SCC(=O)c2ccc(CNC(=O)CO)s2)c2cc(OC3CC3)ccc2n1` [Compound 77, N-((5-(2-((6-cyclopropoxy-2-methylquinazolin-4-yl)thio)acetyl)thiophen-2-yl)methyl)-2-hydroxyacetamide] the figure was ≥ 7.00; with `Cc1nc(SCC(=O)c2ccc(CNC(=O)CO)s2)c2cc(NCC3CC3)ccc2n1` [Compound 78, N-((5-(2-((6-((cyclopropylmethyl)amino)-2-methylquinazolin-4-yl)thio)acetyl)thiophen-2-yl)methyl)-2-hydroxyacetamide], ≥ 7.00.
The same measure for `COc1ccc2nc(C(F)(F)F)nc(SCC(=O)c3ccc(CNC(=O)CO)s3)c2c1` [Compound 80, 2-hydroxy-N-((5-(2-((6-methoxy-2-(trifluoromethyl)quinazolin-4-yl)thio)acetyl)thiophen-2-yl)methyl)acetamide]: ≥ 7.00; for `Cc1nc(SCC(=O)c2ccc(CNC(=O)CO)s2)c2cc(N3CCOCC3)ccc2n1` [Compound 81, 2-hydroxy-N-((5-(2-((2-methyl-6-morpholinoquinazolin-4-yl)thio)acetyl)thiophen-2-yl)methyl)acetamide]: ≥ 7.00.
With `Cc1nc(SCC(=O)c2ccc(CNC(=O)CO)s2)c2cc(N3CCCCC3)ccc2n1` [Compound 82, 2-hydroxy-N-((5-(2-((2-methyl-6-(piperidin-1-yl)quinazolin-4-yl)thio)acetyl)thiophen-2-yl)methyl)acetamide], the pIC50 was ≥ 7.00.
The same measure for `Cc1nc(SCC(=O)c2ccc(CNC(=O)CO)s2)c2cc(N3CCCOCC3)ccc2n1` [Compound 83, 2-hydroxy-N-((5-(2-((2-methyl-6-(1,4-oxazepan-4-yl)quinazolin-4-yl)thio)acetyl)thiophen-2-yl)methyl)acetamide]: ≥ 7.00; for `Cc1nc(SCC(=O)c2ccc(CNC(=O)CO)s2)c2cc(N3CCC(F)(F)C3)ccc2n1` [Compound 84, N-((5-(2-((6-(3,3-difluoropyrrolidin-1-yl)-2-methylquinazolin-4-yl)thio)acetyl)thiophen-2-yl)methyl)-2-hydroxyacetamide]: ≥ 7.00; for `Cn1ncc2c(SCC(=O)c3ccc(C4CCN(C(=O)CO)C4)s3)ncnc21` (centres unmarked) [Compound 86, 2-hydroxy-1-(3-(5-(2-((1-methyl-1H-pyrazolo[3,4-d]pyrimidin-4-yl)thio)acetyl)thiophen-2-yl)157yrrolidine-1-yl)ethan-1-one]: 5.00 to 6.00.
The same measure for `Cn1ncc2c(SCC(=O)c3ccc(CNS(=O)(=O)c4ccccc4)s3)ncnc21` [Compound 88, N-((5-(2-((1-methyl-1H-pyrazolo[3,4-d]pyrimidin-4-yl)thio)acetyl)thiophen-2-yl)methyl)benzenesulfonamide]: 5.00 to 6.00; for `Cn1ncc2c(SCC(=O)c3ccc(CNS(=O)(=O)C4CC4)s3)ncnc21` [Compound 89, N-((5-(2-((1-methyl-1H-pyrazolo[3,4-d]pyrimidin-4-yl)thio)acetyl)thiophen-2-yl)methyl)cyclopropanesulfonamide]: 5.00 to 6.00; for `Cn1ncc2c(SCC(=O)c3ccc(C4CCN(S(N)(=O)=O)C4)s3)ncnc21` (centres unmarked) [Compound 96, 3-(5-(2-((1-methyl-1H-pyrazolo[3,4-d]pyrimidin-4-yl)thio)acetyl)thiophen-2-yl)pyrrolidine-1-sulfonamide]: 6.00 to 6.30.
The same measure for `CC(=O)NCc1ccc(C(=O)CSc2nc(C(F)(F)F)nc3ccccc23)s1` [Compound 99, N-((5-(2-((2-(trifluoromethyl)quinazolin-4-yl)thio)acetyl)thiophen-2-yl)methyl)acetamide]: ≥ 7.00; for `CC(=O)NCCc1ccc(C(=O)CSc2nc(C(F)(F)F)nc3ccccc23)s1` [Compound 100, N-(2-(5-(2-((2-(trifluoromethyl)quinazolin-4-yl)thio)acetyl)thiophen-2-yl)ethyl)acetamide]: 6.30 to 7.00.
